Measured values taken from patent US8105577B1, “Prebiotic composition for increasing probiotic growth rate and activity” (Master Supplements, Inc., priority 2010, dated 2012).

Key:
Assay type in all cases: cell-based
[1] = tested on: Lactobacillus paracasei Lpc-37 (F-19); test: Growth (turbidity) and lactic acid producing activity in MRS broth, L. paracasei Lpc-37
Protocol: (§1) Each flask was tempered to 37° C. and aseptically inoculated with 0.14 gm of the individual probiotic strains (in Examples 5 to 10 below) to be tested. At specified time intervals, a 30 ml sample from each flask was aseptically transferred into a HACH […] Turbidimeter sample cell. The turbidity of each sample was read and the results were reported in NTU's. The same 30 ml sample used for the turbidity reading was transferred into a 250 ml glass beaker, and the pH was recorded. The sample was titrated using 0.1N NaOH to an endpoint of pH 6.8, and the quantity of NaOH used was recorded. The % Lactic Acid was calculated using the following formula: % Lactic Acid=((mls of 0.1N NaOH)×(0.1N)×(90 gm/mole)×(1 L/1000 ml))×100 mls of sample % Lactic Acid=(mls of 0.1N NaOH)×(0.9) (Results reported at 12 hours and 23 hours like: 12/23 in Table III below)

[2] = tested on: Lactobacillus salivarius Ls-33 (LS-30); test: Growth (turbidity) and lactic acid producing activity in MRS broth, L. salivarius Ls-33; details: for pH: 0.1% in MRS (polysorbate 80 1.0 g/liter)
Protocol: as §1, with “V” for “III”

[3] = tested on: THERALAC® Lot #32310A probiotic strains; test: Growth of the commercial probiotic […] in MRS broth (turbidity, lactic acid, pH); details: for pH: 0.1% in MRS (polysorbate 80 1.0 g/liter)
Protocol: MRS broth was prepared with (for controls) and without (for tests) polysorbate 80 and filled into 1 liter screw cap flasks at 500 ml each and autoclaved at 121° C. for 30 minutes. Various lecithin and/or oleic acid additives, or nothing (negative control), was added to the tests flasks prior to autoclaving. The flasks were then tempered to 37° C. in a water bath and inoculated at 0.1% with […]® Lot #32310A, a commercial probiotic product (Master Supplements, Inc., Victoria, Minn.). Capsules of […]® were opened and the contents mixed aseptically to serve as the inoculum source. At an inoculation rate of 0.1%, approximately 80 million CFU was added per ml of MRS media. […]® contains (formulation strength) the following probiotic strains at the approximate CFU values listed per gram: Turbidity, pH and titrations (made with 0.1 N NaOH and reported as % lactic acid) were made at various times up to 23 hours. The results are presented below in Table VI for the 12 and 23-hour analyses.

[4] = tested on: Lactobacillus rhamnosus Lr-32 (LR-44); test: Growth (turbidity) and lactic acid producing activity in MRS broth, L. rhamnosus Lr-32; details: for pH: 0.1% in MRS (polysorbate 80 1.0 g/liter)
Protocol: as §1, with “IV” for “III”

[5] = tested on: Lactobacillus acidophilus NCFM (LA-1); test: Growth (turbidity) and lactic acid producing activity in MRS broth, L. acidophilus NCFM; details: for pH: 0.1% in MRS (polysorbate 80 1.0 g/liter)
Protocol: as §1, with “At” for “Each flask was tempered to 37° C. and aseptically inoculated with 0.14 gm of the individual probiotic strains (in Examples 5 to 10 below) to be tested. At”, “I” for “III”

[6] = tested on: Bifidobacterium lactis Bl-04 (BL-34); test: Growth (turbidity) and lactic acid producing activity in MRS broth, B. lactis Bl-04; details: 0.1% in MRS (polysorbate 80 1.0 g/liter)
Protocol: as §1, with “II” for “III”

[7] = 0.1% in MRS (polysorbate 80 1.0 g/liter), 12 hours

Compound | effectiveness as polysorbate 80 replacement, in words ([1]; 0.1% inclusion rate in MRS) | effectiveness as polysorbate 80 replacement, in words ([2]; 0.1% inclusion rate in MRS) | effectiveness as polysorbate 80 replacement, in words ([3]; 0.1% inclusion rate in MRS) | effectiveness as polysorbate 80 replacement, in words ([4]; 0.1% inclusion rate in MRS) | effectiveness as polysorbate 80 replacement (growth and lactic acid production), in words ([5]; 0.1% inclusion rate in MRS) | Lactic Acid % [1, 7] | pH [1, 7] | pH ([1]; 0.1% in MRS (polysorbate 80 1.0 g/liter), 23 hours) | pH ([2]; 12 hours) | pH ([2]; 23 hours) | pH ([3]; 12 hours) | pH ([3]; 23 hours) | pH ([4]; 12 hours) | pH ([4]; 23 hours) | Lactic Acid % ([6]; 12 hours) | pH ([6]; 12 hours) | Lactic Acid % ([6]; 23 hours) | pH ([6]; 23 hours) | pH ([5]; 12 hours) | pH ([5]; 23 hours)
CCCCCCCC/C=C\CCCCCCCC(=O)O [Oleic Acid, oleic acid] | shows an improvement over no polysorbate 80 but is not as effective a replacement for polysorbate 80 as sunflower lecithin | not as good a replacement as a lag phase is apparent at 12 hours | acceptable replacement value for polysorbate 80 but is not as effective as either of the lecithins | shows an improvement over no polysorbate 80 on the 23-hour test but shows a significant lag phase at 12 hours; it is not as good a replacement for polysorbate 80 as sunflower lecithin | somewhat effective as a polysorbate 80 replacement but not as effective as either sunflower or soy lecithin | – | – | – | – | – | – | – | – | – | – | – | – | – | – | –
polysorbate 80 | – | – | – | – | – | 0.99% | 4.2 | 3.9 | 3.8 | 3.7 | 3.9 | 3.7 | 4.0 | 3.7 | 0.57% | 4.8 | 0.84% | 4.5 | 4.2 | 4.1
